Reference: patent publication US8809232B2, “Herbicidal compositions comprising 4-amino-3-chloro-5-fluoro-6-(4-chloro-2-fluoro-3-methoxyphenyl) pyridine-2-carboxylic acid or a derivative thereof and halosulfuron, pyrazosulfuron and esprocarb” (Dow Agrosciences LLC, priority 2012, dated 2014)
“And” between values parts separate entries of the source, which are not always exact repeats. Equal entries are not always repeated.

Legend:
BRAPP = assay: Post-emergence foliar-applied herbicidal mixtures, greenhouse, direct seeded rice weeds; type: in vivo
Text: (§1) Seeds or nutlets of the desired test plant species were planted in a soil matrix prepared by mixing a loam or sandy loam soil (e.g., 28.6 percent silt, 18.8 percent clay, and 52.6 percent sand, with a pH of about 5.8 and an organic matter content of about 1.8 percent) and calcareous grit in an 80 to 20 ratio. The soil matrix was contained in plastic pots with a volume of 1 quart and a surface area of 83.6 square centimeters (cm^2). When required to ensure good germination and healthy plants, a fungicide treatment and/or other chemical or physical treatment was applied. The plants were grown for 8-22 days in a greenhouse with an approximate 14 hr photoperiod which was maintained at about 29° C. during the day and 26° C. during the night. Nutrients (Peters Excel® 15-5-15 5-Ca 2-Mg and iron chelate) were applied in the irrigation solution as needed and water was added on a regular basis. Supplemental lighting was provided with overhead metal halide 1000-Watt lamps as necessary. The plants were employed for testing when they reached the first through fourth true leaf stage.
(§2) Treatments consisted of the acid or esters of 4-amino-3-chloro-5-fluoro-6-(4-chloro-2-fluoro-3-methoxy-phenyl)pyridine-2-carboxylic acid (Compound A), each formulated as an SC (suspension concentrate), and various herbicidal components alone and in combination. Forms of compound A were applied on an acid equivalent basis.
(§3) Other herbicidal components were applied on an active ingredient basis and included the acetolactate synthase (ALS)-inhibiting herbicides halosulfuron-methyl formulated as Permit® 75 WDG, pyrazosulfuron-ethyl formulated as Agreen® WG or Sirius® G, and the VLCFA inhibiting herbicide esprocarb (technical grade material).
(§4) Treatment requirements were calculated based upon the rates being tested, the concentration of active ingredient or acid equivalent in the formulation, and a 12 mL application volume at a rate of 187 L/ha.
(§5) For treatments comprised of formulated compounds, measured amounts of compounds were placed individually in 25 mL glass vials and diluted in a volume of 1.25% (v/v) Agri-Dex® crop oil concentrated to obtain 12× stock solutions. […] Application solutions were prepared by adding an appropriate amount of each stock solution (e.g., 1 mL) and diluted to the appropriate final concentrations with the addition of 10 mL of an aqueous mixture of 1.25% (v/v) crop oil concentrate so that the final spray solutions contained 1.25+/−0.05% (v/v) crop oil concentrate.
(§6) For treatments comprised of technical compounds, weighed amounts can be placed individually in 25 mL glass vials and dissolved in a volume of 97:3 v/v acetone/DMSO to obtain 12× stock solutions. […] Application solutions can be prepared by adding an appropriate amount of each stock solution (e.g., 1 mL) and diluted to the appropriate final concentrations with the addition of 10 mL of an aqueous mixture of 1.5% (v/v) crop oil concentrate so that the final spray solutions contain 1.25% (v/v) crop oil concentrate. When technical materials are used, the concentrated stock solutions can be added to the spray solutions so that the final acetone and DMSO concentrations of the application solutions are 16.2% and 0.5%, respectively.
(§7) For treatments comprised of formulated and technical compounds, weighed amounts of the technical materials were placed individually in 25 mL glass vials and dissolved in a volume of 97:3 v/v acetone/DMSO to obtain 12× stock solutions, and measured amounts of the formulated compounds were placed individually in 25 mL glass vials and diluted in a volume of 1.5% (v/v) crop oil concentrate or water to obtain 12× stock solutions. […] Application solutions were prepared by adding an appropriate amount of each stock solution (e.g., 1 mL) and diluted to the appropriate final concentrations with the addition of an appropriate amount of an aqueous mixture of 1.5% (v/v) crop oil concentrate so that the final spray solutions contained 1.25% (v/v) crop oil concentrate. […]

DIGSA = assay: as above; type: in vivo, Digitaria sanguinalis (L.) Scop.
Text: as §1, §2, §3, §4, §5, §6, §7

LEFCH [1] = assay: as above; type: in vivo, Leptochloa chinensis (L.) Nees
Text: as §1, §2, §3, §4, §5, §6, §7

CYPIR = assay: as above; type: in vivo, Cyperus iria L.
Text: as §1, §2, §3, §4
(§8) For treatments comprised of formulated compounds, measured amounts of compounds were placed individually in 25 mL glass vials and diluted in a volume of 1.25% (v/v) Agri-Dex® crop oil concentrated to obtain 12× stock solutions. […]
(§9) For treatments comprised of formulated and technical compounds, weighed amounts of the technical materials were placed individually in 25 mL glass vials and dissolved in a volume of 97:3 v/v acetone/DMSO to obtain 12× stock solutions, and measured amounts of the formulated compounds were placed individually in 25 mL glass vials and diluted in a volume of 1.5% (v/v) crop oil concentrate or water to obtain 12× stock solutions. […]

SCPJU = assay: as above; type: in vivo, Schoenoplectus juncoides (Roxb.) Palla; details: 8.75 g ae/ha
Text: as §1, with “stage. […]” for “stage.”
as §4, §8, §9

ECHOR = assay: In-water applied herbicidal mixtures, greenhouse, transplanted paddy rice weeds; type: in vivo, Echinochloa oryzoides (Ard.) Fritsch
Procedure: (§10) Weed seeds or nutlets of the desired test plant species were planted in puddled soil (mud) prepared by mixing a shredded, non-sterilized mineral soil (50.5 percent silt, 25.5 percent clay, and 24 percent sand, with a pH of about 7.6 and an organic matter content of about 2.9 percent) and water at a 1:1 volumetric ratio. The prepared mud was dispensed in 365 mL aliquots into 16-ounce (oz.) non-perforated plastic pots with a surface area of 86.59 square centimeters (cm^2) leaving a headspace of 3 centimeters (cm) in each pot Mud was allowed to dry overnight prior to planting or transplanting. Rice seeds were planted in Sun Gro MetroMix® 306 planting mixture, which typically has a pH of 6.0 to 6.8 and an organic matter content of about 30 percent, in plastic plug trays. Seedlings at the second or third leaf stage of growth were transplanted into 840 mL of mud contained in 32-oz. non-perforated plastic pots with a surface area of 86.59 cm^2 4 days prior to herbicide application. The paddy was created by filling the headspace of the pots with 2.5 to 3 cm of water. When required to ensure good germination and healthy plants, a fungicide treatment and/or other chemical or physical treatment was applied. The plants were grown for 4-22 days in a greenhouse with an approximate 14 hr photoperiod which was maintained at about 29′C during the day and 26° C. during the night. Nutrients were added as Osmocote® (19:6:12, N:P:K^+ minor nutrients) at 2 g per 16-oz. pot and 4 g per 32-oz. pot. Water was added on a regular basis to maintain the paddy flood, and supplemental lighting was provided with overhead metal halide 1000-Watt lamps as necessary. The plants were employed for testing when they reached the first through fourth true leaf stage.
as §2, with “(compound A)” for “(Compound A),”, “concentrate)” for “concentrate),”
(§11) Other herbicidal components were applied on an active ingredient basis and included acetolactate synthase (ALS)-inhibiting herbicides formulated as Permit® 75 WDG, pyrazosulfuron-ethyl formulated as Agreen® WG or Sirius® G, and VLCFA inhibiting herbicide esprocarb (technical grade material).
(§12) Treatment requirements for each compound or herbicidal component were calculated based upon the rates being tested, the concentration of active ingredient or acid equivalent in the formulation, an application volume of 2 mL per component per pot, and an application area of 86.59 cm^2 per pot.
(§13) For formulated compounds, a measured amount was placed in an individual 100 or 200 mL glass vial and was dissolved in a volume of 1.25% (v/v) Agri-Dex® crop oil concentrate to obtain application solutions.
(§14) For technical grade compounds, a weighed amount was placed in an individual 100 to 200 mL glass vial and was dissolved in a volume of acetone to obtain concentrated stock solutions. […] The concentrated stock solutions obtained were diluted with an equivalent volume of an aqueous mixture containing 2.5% (v/v) crop oil concentrate so that the final application solutions contained 1.25% (v/v) crop oil concentrate.
(§15) Applications were made by injecting with a pipetter appropriate amounts of the application solutions, individually and sequentially, into the aqueous layer of the paddy. Control plants were treated in the same manner with the solvent blank. Applications were made so that all treated plant material received the same concentrations of acetone and crop oil concentrate.
(§16) The treated plants and control plants were placed in a greenhouse as described above and water was added as needed to maintain a paddy flood. […]

SCPMA = assay: as above; type: in vivo
Procedure: as §10
as §2, with “(compound A)” for “(Compound A),”, “concentrate)” for “concentrate),”
as §11, §12, §13, §14, §15, §16

CYPRO = assay: as above; type: in vivo, Cyperus rotundus L.
Procedure: as §10
as §2, with “(compound A)” for “(Compound A),”, “concentrate)” for “concentrate),”
as §11, §12, §13, §14, §15, §16

LEFCH [2] = assay: as above; type: in vivo, Leptochloa chinensis (L.) Nees; details: 4.38 g ae/ha
Procedure: as §10, with “Water was added on a regular basis to maintain the paddy flood, and supplemental lighting was provided with overhead metal halide 1000-Watt lamps as necessary. The plants were employed for testing when they reached the first through fourth true leaf stage.” left out
as §12
For formulated compounds, a measured amount was placed in an individual 100 or 200 mL glass vial and was dissolved in a volume of 1.25% (v/v) Agri-Dex® crop oil concentrate to obtain application solutions. […]

FIMMI = assay: as above; type: in vivo, Fimbristylis miliacea (L.) Vahl; details: 4.38 g ae/ha
Procedure: as §10
as §2, with “(compound A)” for “(Compound A),”, “concentrate)” for “concentrate),”
as §11, §12, §13, §14
Applications were made by injecting with a pipetter appropriate amounts of the application solutions, individually and sequentially, into the aqueous layer of the paddy. […]

COc1c(Cl)ccc(-c2nc(C(=O)OCc3ccccc3)c(Cl)c(N)c2F)c1F [Compound A Benzyl Ester]
Visual Weed Control (%) - 20 DAA BRAPP Obs (BRAPP; 4.38 g ae/ha): 40% | Visual Weed Control (%) - 21 DAA BRAPP Obs (BRAPP; 4.38 g ae/ha): 50% | Visual Weed Control (%) - 20 DAA BRAPP Obs (BRAPP; 8.75 g ae/ha): 70% | Visual Weed Control (%) - 21 DAA DIGSA Obs (DIGSA; 17.5 g ae/ha): 23% | Visual Weed Control (%) - 21 DAA DIGSA Obs (DIGSA; 35 g ae/ha): 38% | Visual Weed Control (%) - 20 DAA LEFCH Obs (LEFCH [1]; 4.38 g ae/ha): 0% | Visual Weed Control (%) - 20 DAA LEFCH Obs (LEFCH [1]; 8.75 g ae/ha): 20% | Visual Weed Control (%) - 20 DAA LEFCH Obs (LEFCH [1]; 17.5 g ae/ha): 40% | Visual Weed Control (%) - 22 DAA CYPIR Obs (CYPIR; 4.38 g ae/ha): 25% | Visual Weed Control (%) - 22 DAA CYPIR Obs (CYPIR; 8.75 g ae/ha): 50% | Visual Weed Control (%) - 22 DAA SCPJU Obs (SCPJU): 80% | Visual Weed Control (%) - 21 DAA ECHOR Obs (ECHOR; 4.38 g ae/ha): 0% | Visual Weed Control (%) - 21 DAA ECHOR Obs (ECHOR; 8.75 g ae/ha): 10% | Visual Weed Control (%) - 20 DAA ECHOR Obs (ECHOR; 35 g ae/ha): 73% | Visual Weed Control (%) - 22 DAA SCPMA Obs (SCPMA; 4.38 g ae/ha): 0% | Visual Weed Control (%) - 22 DAA SCPMA Obs (SCPMA; 8.75 g ae/ha): 0% | Visual Weed Control (%) - 22 DAA SCPMA Obs (SCPMA; 17.5 g ae/ha): 0% | Visual Weed Control (%) - 20 DAA SCPMA Obs (SCPMA; 70 g ae/ha): 0% | Visual Weed Control (%) - 21 DAA CYPRO Obs (CYPRO; 4.38 g ae/ha): 20% and 30% | Visual Weed Control (%) - 21 DAA CYPRO Obs (CYPRO; 8.75 g ae/ha): 65% and 60% | Visual Weed Control (%) - 22 DAA LEFCH Obs (LEFCH [2]): 0% | Visual Weed Control (%) - 21 DAA FIMMI Obs (FIMMI): 20%
